Data published in US10160755B2 (Plexxikon Inc., priority 2015, dated 2018).

Key:
FLT3-D835Y = target: T1, FLT3-D835Y (Homo sapiens, UniProt P36888, D835Y); experiment: FLT3-D835Y biochemical kinase assay (AlphaScreen)
T1 construct: purchased Invitrogen PV3967
T1 sequence (P36888 27-993 D835Y): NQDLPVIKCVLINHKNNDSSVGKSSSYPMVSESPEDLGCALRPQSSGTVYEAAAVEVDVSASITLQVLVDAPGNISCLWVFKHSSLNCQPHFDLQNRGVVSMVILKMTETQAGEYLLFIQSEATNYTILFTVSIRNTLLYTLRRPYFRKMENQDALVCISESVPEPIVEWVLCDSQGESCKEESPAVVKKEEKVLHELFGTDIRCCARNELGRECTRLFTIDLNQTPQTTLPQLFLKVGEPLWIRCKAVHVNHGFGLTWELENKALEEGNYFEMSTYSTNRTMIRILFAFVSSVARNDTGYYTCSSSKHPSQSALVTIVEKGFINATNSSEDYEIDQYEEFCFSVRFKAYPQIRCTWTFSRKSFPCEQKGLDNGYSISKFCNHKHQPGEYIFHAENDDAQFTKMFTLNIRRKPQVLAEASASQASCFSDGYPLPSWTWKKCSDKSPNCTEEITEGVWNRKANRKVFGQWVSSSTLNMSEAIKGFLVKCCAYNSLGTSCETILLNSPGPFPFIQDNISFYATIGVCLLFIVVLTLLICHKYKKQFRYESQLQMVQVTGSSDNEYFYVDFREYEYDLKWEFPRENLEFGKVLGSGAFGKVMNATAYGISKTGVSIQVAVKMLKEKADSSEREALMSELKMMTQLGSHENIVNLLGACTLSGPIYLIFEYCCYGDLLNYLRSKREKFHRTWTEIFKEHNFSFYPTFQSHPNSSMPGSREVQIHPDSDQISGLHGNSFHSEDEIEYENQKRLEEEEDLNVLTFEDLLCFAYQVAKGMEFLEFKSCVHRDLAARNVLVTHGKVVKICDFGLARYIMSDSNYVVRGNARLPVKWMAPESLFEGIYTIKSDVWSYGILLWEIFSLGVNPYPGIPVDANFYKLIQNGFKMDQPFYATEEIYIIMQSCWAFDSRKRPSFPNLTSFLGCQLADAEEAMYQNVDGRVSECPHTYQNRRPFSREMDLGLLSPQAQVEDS
Excerpt: (§1) In order to determine the effect of compounds on FLT3 catalytic activity, kinase assays using recombinant enzymes and AlphaScreen® technology have been established. When the kinases are catalytically active, they phosphorylate a biotinylated peptide substrate on tyrosine residues. Using AlphaScreen® technology, the ability of the compounds to affect the catalytic activity of the kinases can be measured quantitatively. The peptide substrate is immobilized by the AlphaScreen® Streptavidin Donor beads and, upon phosphorylation by a tyrosine kinase, can bind to AlphaScreen® Anti-Phosphotyrosine (PY20) Acceptor beads. Upon excitation of these beads with laser light at 680 nm, singlet oxygen is produced. This singlet oxygen is rapidly quenched, unless the AlphaScreen® Anti-Phosphotyrosine (PY20) Acceptor beads are in close proximity, in which case a proximity signal can be measured at 580 nm. In the presence of catalytic activity, there is a very strong proximity signal. Selective kinase inhibitors affect a decrease in this proximity signal through a decrease in tyrosine phosphorylation of the peptide substrate.
(§2) Substrate • Poly (Glu4-Tyr) Peptide, biotin conjugate [Biotin-GG(EEEEY)10EE (SEQ ID NO: 4)] • UBI/Millipore #12-440 • Final concentration=30 nM
(§3) Adenosine Triphosphate (ATP) • Sigma #A-3377 • Final concentration for IC50 determination=10 μM (FLT3-D835Y) or 100 μM (FLT3 or FLT3-ITD) • Detection Reagent • AlphaScreen® Phosphotyrosine (PY20) Assay Kit • Perkin-Elmer #6760601M • Final concentration=10 μg/mL
(§4) Centrifuge 1 minute, shake to mix, and incubate as follows:
(§5) • Mix Streptavidin Donor beads at 6× final concentration in Stop/Detection buffer. • Add 5 μL Streptavidin Donor beads to the reaction plate. Centrifuge 1 minute, shake to mix, and incubate at room temperature for 20 minutes. • Mix Anti-Phosphotyrosine (PY20) Acceptor beads at 6× final concentration in Stop/Detection buffer. • Add 5 μL Anti-Phosphotyrosine (PY20) beads to the reaction plate. • Centrifuge 1 minute, shake to mix, and incubate at room temperature for 60 minutes. • Read plate on Wallac EnVision™ 2103 Multilabel Reader. In Vivo Model System Testing

FLT3-ITD = target: T2, FLT3-ITD (Homo sapiens, UniProt P36888); experiment: FLT3-ITD biochemical kinase assay (AlphaScreen)
T2 construct: FLT3-ITD; Invitrogen #PV6190
T2 sequence (P36888 1-993): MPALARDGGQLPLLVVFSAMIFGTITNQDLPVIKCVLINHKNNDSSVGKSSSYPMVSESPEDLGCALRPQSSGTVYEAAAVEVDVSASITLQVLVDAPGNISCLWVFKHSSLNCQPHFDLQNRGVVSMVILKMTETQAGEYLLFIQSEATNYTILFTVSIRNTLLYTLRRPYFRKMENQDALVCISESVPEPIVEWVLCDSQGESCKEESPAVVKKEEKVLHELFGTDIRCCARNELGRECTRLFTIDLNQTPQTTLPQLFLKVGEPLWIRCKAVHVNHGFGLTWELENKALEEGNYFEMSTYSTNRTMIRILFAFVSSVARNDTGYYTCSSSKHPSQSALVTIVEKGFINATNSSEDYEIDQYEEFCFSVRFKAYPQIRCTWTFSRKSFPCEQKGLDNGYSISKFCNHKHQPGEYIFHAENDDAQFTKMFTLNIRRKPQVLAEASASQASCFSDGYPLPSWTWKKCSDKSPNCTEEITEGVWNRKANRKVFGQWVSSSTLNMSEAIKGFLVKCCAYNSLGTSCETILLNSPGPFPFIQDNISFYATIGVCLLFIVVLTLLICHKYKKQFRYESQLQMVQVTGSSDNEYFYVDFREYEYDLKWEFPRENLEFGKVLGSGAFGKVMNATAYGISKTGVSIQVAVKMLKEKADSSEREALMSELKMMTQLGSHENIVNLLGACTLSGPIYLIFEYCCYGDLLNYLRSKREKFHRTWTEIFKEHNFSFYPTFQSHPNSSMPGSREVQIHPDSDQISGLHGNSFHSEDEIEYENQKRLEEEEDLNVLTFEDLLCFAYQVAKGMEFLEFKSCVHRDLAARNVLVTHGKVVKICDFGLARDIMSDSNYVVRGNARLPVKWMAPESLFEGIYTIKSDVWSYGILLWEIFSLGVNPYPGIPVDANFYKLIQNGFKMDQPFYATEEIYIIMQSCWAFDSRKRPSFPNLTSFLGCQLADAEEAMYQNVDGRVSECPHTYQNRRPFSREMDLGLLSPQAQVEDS
Excerpt: as §1, §2, §3, §4, §5

Structure (SMILES)	IC50 (FLT3-D835Y)	IC50 (FLT3-ITD)
O=C(C1CC1)N1CC=C(c2cnc3[nH]cc(-c4ccc5c(c4)N(CC(F)(F)F)CCO5)c3n2)C1 [P-190]	0.0001 to 1 µM	0.0001 to 1 µM
CC(C)(C)n1cnc2ccc(-c3c[nH]c4ncc(-c5ccnc(C6CC6)c5)nc34)cc21 [P-351, 7-(3-tert-butylbenzimidazol-5-yl)-2-(2-cyclopropyl-4-pyridyl)-5H-pyrrolo[2,3-b]pyrazine]	0.0001 to 1 µM	0.0001 to 1 µM
COc1cc(-c2cnc3[nH]cc(-c4ccc5c(c4)N(C(C)C)CCO5)c3n2)ccn1 [P-187, 4-isopropyl-6-[2-(2-methoxy-4-pyridyl)-5H-pyrrolo[2,3-b]pyrazin-7-yl]-2,3-dihydro-1,4-benzoxazine]	0.0001 to 1 µM	0.0001 to 1 µM
CC(C)(C)n1cnc2ccc(-c3c[nH]c4ncc(-c5cnn(C6CC6)c5)nc34)cc21 [P-350, 7-(3-tert-butylbenzimidazol-5-yl)-2-(1-cyclopropylpyrazol-4-yl)-5H-pyrrolo[2,3-b]pyrazine]	0.0001 to 1 µM	0.0001 to 1 µM
CC(C)(C)n1cnc2ccc(-c3c[nH]c4ncc(NS(=O)(=O)c5cccc(OC(F)(F)F)c5)cc34)cc21 [P-213, N-[3-(3-tert-butylbenzimidazol-5-yl)-1H-pyrrolo[2,3-b]pyridin-5-yl]-3-(trifluoromethoxy)benzenesulfonamide]	1 to 10 µM	0.0001 to 1 µM
N#Cc1cccc(S(=O)(=O)Nc2cnc3[nH]cc(-c4ccc5ncn(C6CCCNC6)c5c4)c3c2)c1 (centres unmarked) [P-234, 3-cyano-N-[3-[3-(3-piperidyl)benzimidazol-5-yl]-1H-pyrrolo[2,3-b]pyridin-5-yl]benzenesulfonamide]	0.0001 to 1 µM	0.0001 to 1 µM
COc1cc(-c2cnc3[nH]cc(-c4ccc5ncn(C(C)(C)C)c5c4)c3n2)ccc1C#N [P-354, 4-[7-(3-tert-butylbenzimidazol-5-yl)-5H-pyrrolo[2,3-b]pyrazin-2-yl]-2-methoxy-benzonitrile]	0.0001 to 1 µM	0.0001 to 1 µM
Cn1cnc2ccc(-c3c[nH]c4ncc(-c5cccc(S(=O)(=O)N6CCCC6)c5)nc34)cc21 [P-156, 7-(3-methylbenzimidazol-5-yl)-2-(3-pyrrolidin-1-ylsulfonylphenyl)-5H-pyrrolo[2,3-b]pyrazine]	0.0001 to 1 µM	0.0001 to 1 µM
CC(C)(C)n1cnc2ccc(-c3c[nH]c4ncc(-c5cccc(OCC#N)c5)cc34)cc21 [P-367, 2-[3-[3-(3-tert-butylbenzimidazol-5-yl)-1H-pyrrolo[2,3-b]pyridin-5-yl]phenoxy]acetonitrile]		0.0001 to 1 µM
Cc1ncc(-c2cnc3[nH]cc(-c4ccc5ncn(C(C)(C)C)c5c4)c3c2)cc1C#N [P-391, 5-[3-(3-tert-butylbenzimidazol-5-yl)-1H-pyrrolo[2,3-b]pyridin-5-yl]-2-methyl-pyridine-3-carbonitrile]		0.0001 to 1 µM
C=CCS(=O)(=O)Nc1cccc(-c2cnc3[nH]cc(-c4ccc5ncn(C(C)(C)C)c5c4)c3c2)c1 [P-375, N-[3-[3-(3-tert-butylbenzimidazol-5-yl)-1H-pyrrolo[2,3-b]pyridin-5-yl]phenyl]prop-2-ene-1-sulfonamide]		0.0001 to 1 µM
CC(C)(C)n1cnc2ccc(-c3c[nH]c4ncc(-c5cncc(NS(C)(=O)=O)c5)cc34)cc21 [P-371, N-[5-[3-(3-tert-butylbenzimidazol-5-yl)-1H-pyrrolo[2,3-b]pyridin-5-yl]-3-pyridyl]methanesulfonamide]		0.0001 to 1 µM
Cc1ncc(-c2cnc3[nH]cc(-c4ccc5ncn(C(C)(C)C)c5c4)c3c2)cc1F [P-392, 1-tert-butyl-6-[5-(5-fluoro-6-methyl-3-pyridyl)-1H-pyrrolo[2,3-b]pyridin-3-yl]benzimidazole]		0.0001 to 1 µM
COc1cc(-c2cnc3[nH]cc(-c4ccc5ncn(C(C)(C)C)c5c4)c3c2)ccc1C#N [P-372, 4-[3-(3-tert-butylbenzimidazol-5-yl)-1H-pyrrolo[2,3-b]pyridin-5-yl]-2-methoxy-benzonitrile]		0.0001 to 1 µM

More lines, now with the values ahead:

IC50 (FLT3-D835Y)	IC50 (FLT3-ITD)	Structure (SMILES)
	0.0001 to 1 µM	CC(C)(C)n1cnc2ccc(-c3c[nH]c4ncc(-c5cnc(N)nc5)cc34)cc21 [P-397, 5-[3-(3-tert-butylbenzimidazol-5-yl)-1H-pyrrolo[2,3-b]pyridin-5-yl]pyrimidin-2-amine]
	0.0001 to 1 µM	CN(C)c1ncc(-c2cnc3[nH]cc(-c4ccc5ncn(C(C)(C)C)c5c4)c3c2)cn1 [P-401, 5-[3-(3-tert-butylbenzimidazol-5-yl)-1H-pyrrolo[2,3-b]pyridin-5-yl]-N,N-dimethyl-pyrimidin-2-amine]
	0.0001 to 1 µM	CC(C)(C)n1cnc2ccc(-c3c[nH]c4ncc(-c5cnc(N6CCC6)nc5)cc34)cc21 [P-398, 5-[2-(azetidin-1-yl)pyrimidin-5-yl]-3-(3-tert-butylbenzimidazol-5-yl)-1H-pyrrolo[2,3-b]pyridine]
	0.0001 to 1 µM	CC(C)(C)n1cnc2ccc(-c3c[nH]c4ncc(-c5cncnc5)cc34)cc21 [P-399, 1-tert-butyl-6-(5-pyrimidin-5-yl-1H-pyrrolo[2,3-b]pyridin-3-yl)benzimidazole]
	0.0001 to 1 µM	Cc1cc(-c2cnc3[nH]cc(-c4ccc5ncn(C(C)(C)C)c5c4)c3c2)cnc1C#N [P-393, 5-[3-(3-tert-butylbenzimidazol-5-yl)-1H-pyrrolo[2,3-b]pyridin-5-yl]-3-methyl-pyridine-2-carbonitrile]
	0.0001 to 1 µM	CC(C)(C)n1cnc2ccc(-c3c[nH]c4ncc(-c5cnc(C#N)nc5)cc34)cc21 [P-396, 5-[3-(3-tert-butylbenzimidazol-5-yl)-1H-pyrrolo[2,3-b]pyridin-5-yl]pyrimidine-2-carbonitrile]
	0.0001 to 1 µM	Cc1ncc(-c2cnc3[nH]cc(-c4ccc5ncn(C(C)(C)C)c5c4)c3c2)cn1 [P-395, 1-tert-butyl-6-[5-(2-methylpyrimidin-5-yl)-1H-pyrrolo[2,3-b]pyridin-3-yl]benzimidazole]
